Measurements taken from patent publication US9926281B2 (priority 2014, dated 2018).

Key:
human MMP14 = human MMP14 (Homo sapiens (Human), UniProt P50281); details: read-out: hMMP-14 potency IC50
human TACE = human TACE (Homo sapiens (Human), UniProt P78536); details: read-out: TACE potency IC50
human ADAMTS-5 = human ADAMTS-5 (Homo sapiens (Human), UniProt Q9UNA0); details: read-out: hADAMTS-5 potency IC50
Chain of human ADAMTS-5 (Q9UNA0 262-930): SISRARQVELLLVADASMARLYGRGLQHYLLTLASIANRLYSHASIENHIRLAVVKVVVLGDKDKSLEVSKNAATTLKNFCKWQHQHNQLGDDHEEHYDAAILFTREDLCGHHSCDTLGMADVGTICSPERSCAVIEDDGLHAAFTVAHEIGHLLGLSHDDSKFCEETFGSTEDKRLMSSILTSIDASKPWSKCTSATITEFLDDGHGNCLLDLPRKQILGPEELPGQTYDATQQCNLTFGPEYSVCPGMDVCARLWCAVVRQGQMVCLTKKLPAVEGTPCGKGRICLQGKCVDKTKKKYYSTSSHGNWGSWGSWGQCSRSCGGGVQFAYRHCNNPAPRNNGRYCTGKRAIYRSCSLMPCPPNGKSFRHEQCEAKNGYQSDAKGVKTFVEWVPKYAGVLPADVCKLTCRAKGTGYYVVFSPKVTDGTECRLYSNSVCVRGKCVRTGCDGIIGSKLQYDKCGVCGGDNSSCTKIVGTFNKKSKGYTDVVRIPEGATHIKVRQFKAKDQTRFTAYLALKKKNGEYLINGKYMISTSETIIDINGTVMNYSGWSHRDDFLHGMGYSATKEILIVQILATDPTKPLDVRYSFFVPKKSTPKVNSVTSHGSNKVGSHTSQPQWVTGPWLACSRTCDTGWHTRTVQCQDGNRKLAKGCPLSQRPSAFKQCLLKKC
Protocol: Finally, the fluorescence is read on the Envision (Perkin Elmer) after an incubation of 90 min at 37° C.

Chain of human TACE (P78536 whole entry, looked up, change not shown): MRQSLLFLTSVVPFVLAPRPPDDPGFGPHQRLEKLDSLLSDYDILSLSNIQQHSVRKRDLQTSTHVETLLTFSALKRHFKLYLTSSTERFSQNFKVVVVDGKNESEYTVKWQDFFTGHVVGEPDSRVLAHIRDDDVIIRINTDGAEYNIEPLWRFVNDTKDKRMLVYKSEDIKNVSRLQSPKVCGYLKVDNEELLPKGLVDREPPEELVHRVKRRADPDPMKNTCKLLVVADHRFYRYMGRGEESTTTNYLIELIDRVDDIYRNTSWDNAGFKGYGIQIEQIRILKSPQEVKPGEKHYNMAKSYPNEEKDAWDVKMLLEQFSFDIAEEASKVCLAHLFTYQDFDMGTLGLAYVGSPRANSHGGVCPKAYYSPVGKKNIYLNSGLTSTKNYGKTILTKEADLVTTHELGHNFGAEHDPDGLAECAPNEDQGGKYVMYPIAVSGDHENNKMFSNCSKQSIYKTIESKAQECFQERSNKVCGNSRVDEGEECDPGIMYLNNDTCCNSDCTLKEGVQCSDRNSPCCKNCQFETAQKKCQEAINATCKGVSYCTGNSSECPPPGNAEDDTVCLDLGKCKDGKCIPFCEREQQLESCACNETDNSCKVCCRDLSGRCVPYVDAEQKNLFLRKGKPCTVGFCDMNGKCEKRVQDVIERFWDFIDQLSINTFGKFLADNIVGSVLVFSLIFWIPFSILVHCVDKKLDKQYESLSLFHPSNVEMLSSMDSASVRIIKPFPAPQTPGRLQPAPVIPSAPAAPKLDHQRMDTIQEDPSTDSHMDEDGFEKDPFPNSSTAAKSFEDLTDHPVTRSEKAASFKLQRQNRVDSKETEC

Row | Structure (SMILES) | IC50 (human MMP14) [µM] | IC50 (human TACE) [µM] | IC50 (human ADAMTS-5) [µM]
1 | COCC1(CC(C)C(=O)N2CCN(c3cc(Cl)cc(Cl)c3C)[C@@H](C)C2)NC(=O)NC1=O (stereo partly drawn) [compound 227, 5-[3-[(3S)-4-(3,5-dichloro-2-methyl-phenyl)-3-methyl-piperazin-1-yl]-2-methyl-3-oxo-propyl]-5-(methoxymethyl)imidazolidine-2,4-dione] | > 20 |  | 
2 | CC(CC1NC(=O)NC1=O)C(=O)N1CCN(c2ccc(F)c(F)c2)[C@@H](C)C1 (stereo partly drawn) [compound 251, 5-[3-[(3S)-4-(3,4-difluorophenyl)-3-methyl-piperazin-1-yl]-2-methyl-3-oxo-propyl]imidazolidine-2,4-dione] | > 4 | > 12 | 0.094
3 | C[C@H]1CN(C(=O)CCC2(C3CC3)NC(=O)NC2=O)CCN1c1cccnc1 (stereo partly drawn) [compound 259, 5-cyclopropyl-5-[3-[(3S)-3-methyl-4-(3-pyridyl)piperazin-1-yl]-3-oxo-propyl]imidazolidine-2,4-dione] | > 20 | > 20 | 0.224
4 | C[C@H]1CN(C(=O)CCC2(C3CC3)NC(=O)NC2=O)CCN1c1cncc(Cl)c1 (stereo partly drawn) [compound 260, 5-[3-[(3S)-4-(5-chloro-3-pyridyl)-3-methyl-piperazin-1-yl]-3-oxo-propyl]-5-cyclopropyl-imidazolidine-2,4-dione] | > 20 | > 20 | 0.126
5 | C[C@H]1CN(C(=O)CCC2(C3CC3)NC(=O)NC2=O)CCN1c1cncc(F)c1 (stereo partly drawn) [compound 261, 5-cyclopropyl-5-[3-[(3S)-4-(5-fluoro-3-pyridyl)-3-methyl-piperazin-1-yl]-3-oxo-propyl]imidazolidine-2,4-dione] | > 20 | > 20 | 0.165
6 | C[C@H]1CN(C(=O)CCC2(C3CC3)NC(=O)NC2=O)CCN1c1cccc(Br)c1 (stereo partly drawn) [compound 270, 5-[3-[(3S)-4-(3-bromophenyl)-3-methyl-piperazin-1-yl]-3-oxo-propyl]-5-cyclopropyl-imidazolidine-2,4-dione] | > 4 | > 4 | 0.076
7 | CC(CC1(C)NC(=O)NC1=O)C(=O)N1CCN(c2cncc(Cl)c2)[C@@H](C)C1 (stereo partly drawn) [compound 276, 5-[3-[(3S)-4-(5-chloro-3-pyridyl)-3-methyl-piperazin-1-yl]-2-methyl-3-oxo-propyl]-5-methyl-imidazolidine-2,4-dione] | > 20 | > 4 | 0.115
8 | CC(CC1(C)NC(=O)NC1=O)C(=O)N1CCN(c2cncc(F)c2)[C@@H](C)C1 (stereo partly drawn) [compound 277, 5-[3-[(3S)-4-(5-fluoro-3-pyridyl)-3-methyl-piperazin-1-yl]-2-methyl-3-oxo-propyl]-5-methyl-imidazolidine-2,4-dione] | > 20 | > 4 | 0.152
9 | C[C@H]1CN(C(=O)CCC2(C3CC3)NC(=O)NC2=O)CCN1c1cccc(-c2cn[nH]c2)c1 (stereo partly drawn) [compound 282, 5-cyclopropyl-5-[3-[(3S)-3-methyl-4-[3-(1H-pyrazol-4-yl)phenyl]piperazin-1-yl]-3-oxo-propyl]imidazolidine-2,4-dione] | > 20 | > 20 | 0.11
10 | Cc1ccc(C2(CCC(=O)N3CCN(c4ccc(F)c(Cl)c4)[C@@H](C)C3)NC(=O)NC2=O)cn1 (stereo partly drawn) [compound 287, 5-[3-[(3S)-4-(3-chloro-4-fluoro-phenyl)-3-methyl-piperazin-1-yl]-3-oxo-propyl]-5-(6-methyl-3-pyridyl)imidazolidine-2,4-dione] | > 4 | > 4 | 0.052
11 | C[C@H]1CN(C(=O)CCC2(c3ccncc3)NC(=O)NC2=O)CCN1c1ccc(F)c(Cl)c1 (stereo partly drawn) [compound 288, 5-[3-[(3S)-4-(3-chloro-4-fluoro-phenyl)-3-methyl-piperazin-1-yl]-3-oxo-propyl]-5-(4-pyridyl)imidazolidine-2,4-dione] | > 4 | > 4 | 0.072
